Measurements taken from US20200390729A1, “OPHTHALMIC TOPICAL COMPOSITION COMPRISING DOBESILIC ACID FOR TREATING DISEASES OF THE POSTERIOR SEGMENT OF THE EYE” (LABORATORIOS SALVAT, S.A., priority 2017, published 2020).
Where two headings read alike, the source gives them in different places.

Legend:
[1] = Ocular distribution of etamsylate following topical ocular single dose in rats; type: in vivo, Sprague Dawley (SD) rat; conditions: Sprague-Dawley, rat
Protocol: Bioanalysis of CDO was performed depending on the type of matrix. In the case of plasma, proteins were precipitated using methanol. In the case of tissues, samples were grinded in a Mini Bead Beater using zirconium beads and methanol/water (1:1) (v/v) as solvent. After centrifugation, samples were analyzed by UPLC-MS/MS.
Chromatographic separation was carried out using an Acquity CSH Fluoro Phenyl column (1.7 μm, 50×2.1 mm). Mobile phase consisted of a gradient using 0.1% formic acid in water and acetonitrile from 5% to 45% in 4.5 min at a flow rate of 0.6 ml/min.
With regard to the mass spectrometric detection, the electrospray ionization source worked to record negative ions. Multiple Reaction Monitoring (MRM) acquisition mode of the deprotonated molecular ions was performed. The transition monitored for CDO was m/z 189.0→80.1 with a cone voltage of 45 V and collision energy of 25 eV.
At 15, 60 and 180 minutes post-administration, animals were euthanized and ocular tissues including retina, and optic nerve were collected.
(§1) As described in Example 2.

[2] = Ocular distribution of CDO following 28-day topical ocular repeated dose in diabetic rats; type: in vivo; conditions: rat, retina, day 29, 0.25 h after single instillation, read-out: CDO μg/g tissue Retina
Protocol: 28-day repeated dose study in the diabetic rats was performed to assess CDO levels in retina at the steady state. CDO compositions 2 and 5 of Example 1 were administered by topical ocular instillation (10 μl/eye) TID for 28 days. At day 29 CDO was instilled a single time and retinas were collected 15 minutes post-administration.
as §1

TNF-α mRNA = assay: Anti-inflammatory activity: relative TNF-α mRNA in retinas, streptozotocin diabetic retinopathy model; type: in vivo, SD male rats; conditions: diabetic rats, CDO 10 mg/ml topical 10 μl/eye TID 28 days
Protocol: Diabetes was induced in SD male rats by single intraperitoneal injection of streptozotocin (STZ) at 60 mg/kg body weight in citrate buffer (pH 4.5). Seven days after STZ administration, blood glucose was measured and the level of 250 mg/dl was considered the threshold value to consider diabetes induction. Ophthalmic treatment with CDO at 10 mg/ml (topical instillation of 10 μl/eye) was initiated once hyperglycemia was confirmed and continued for 28 days three times a day (TID). Rats were randomly divided in 3 groups: I. Control (non-diabetic), II. Diabetic rats with no treatment and III. Diabetic rats with CDO at 10 mg/ml. […]
RNA was isolated from each retina by using the commercial kit SV Total RNA Isolation System (Promega) and stored at −80° C. until use. Relative mRNA levels were quantified using a MX3000 (Stratagene) quantitative PCR system. […]
The qPCR system detects the fluorescence emitted by SYBR, its increase corresponds to exponential increase of the PCR product. The software calculates the threshold cycle (Ct), in which the fluorescence exceeds the background signal. Relative changes in gene expression were calculated using the ΔCt method. […] Relative expression of mRNA in the test samples were determined as fold increase compared with the control sample (non-diabetic).

[3] = optic nerve, 0.126 mg, read-out: CDO μg/g tissue Optic nerve
[4] = optic nerve, 1.26 mg, read-out: CDO μg/g tissue Optic nerve
[5] = retina, 0.126 mg, read-out: CDO μg/g tissue Retina
[6] = retina, 1.26 mg, read-out: CDO μg/g tissue Retina

Q: For `O=S(=O)(O)c1cc(O)ccc1O` [CDO, Calcium dobesilate monohydrate], which concentration at 0.25 h [1, 3] is on record?
A: The concentration at 0.25 h was 36.5 µg/g.

Q: And the concentration at 1 h [1, 3]?
A: Its concentration at 1 h is 8.13 µg/g.

Q: And the concentration at 3 h [1, 3]?
A: Its concentration at 3 h is 2.32 µg/g.

Q: What about the concentration at 0.25 h [1, 4] of the same compound?
A: The concentration at 0.25 h was 25.2 µg/g.

Q: And the concentration at 1 h [1, 4]?
A: Its concentration at 1 h is 15.8 µg/g.

Q: What about the concentration at 3 h [1, 4] of the same compound?
A: The concentration at 3 h was 2.67 µg/g.

Q: What about the concentration at 0.25 h [1, 5] of the same compound?
A: The concentration at 0.25 h was 4.39 µg/g.

Q: What about the concentration at 1 h [1, 5] of the same compound?
A: The concentration at 1 h was 3.48 µg/g.

Q: What about the concentration at 3 h [1, 5] of the same compound?
A: The concentration at 3 h was 0.27 µg/g.

Q: What about the concentration at 0.25 h [1, 6] of the same compound?
A: The concentration at 0.25 h was 4.05 µg/g.

Q: What about the concentration at 1 h [1, 6] of the same compound?
A: The concentration at 1 h was 2.42 µg/g.

Q: And the concentration at 3 h [1, 6]?
A: Its concentration at 3 h is 1.56 µg/g.

Q: What about the concentration at 0.25 h ([2]; 0.1 mg/eye, topical eye 28 days (3 administrations/day, 10 μl/eye) 10 mg/ml) of the same compound?
A: Its concentration at 0.25 h is 19.5 µg/g.

Q: What about the concentration at 0.25 h ([2]; 1 mg/eye, topical eye 28 days (3 administrations/day, 10 μl/eye) 100 mg/ml) of the same compound?
A: Its concentration at 0.25 h is 218 µg/g.

Q: What about the “TNF-α mRNA expression of treated group vs control group (non-diabetic)” value (TNF-α mRNA) of the same compound?
A: The value was “slightly lower than the control group”.
